Type in all cases: functional, organism-based
For experiment [1], the system named is Plasmodium falciparum. Put plainly: Antimalarial activity against Plasmodium falciparum IMT 10500 harboring Pfcrt Q271E mutant gene and Ppcrt I371R mutant gene and Pfnhe-1 ms4760 microsatellite mutant assessed as incorporation of [3]H hypoxanthine after 48 hrs by scintillation counter. The note with it: IMT 10500, 48 h.
Experiment [2] has as its system Plasmodium falciparum. The experiment in a line: Antimalarial activity against Plasmodium falciparum IMT K2 harboring Ppcrt M74I, N75E, K76T, A220S, Q271E, N326S mutant gene, Pmdr1 S1034C, N1042D mutant gene and Pfmrp H191Y and S437A mutant gene assessed as incorporation of [3]H hypoxanthine after 48 hrs by scintillation counter. The note with it: IMT K2, 48 h.
Experiment [3] deals with Plasmodium falciparum. Put plainly: Antimalarial activity against Plasmodium falciparum IMT K4 harboring Ppcrt M74I, N75E, K76T, A220S, Q271E, N326S mutant gene, Pmdr1 S1034C, N1042D mutant gene and Pfmrp H191Y and S437A mutant gene assessed as incorporation of [3]H hypoxanthine after 48 hrs by scintillation counter. The note with it: IMT K4, 48 h.
The test system of experiment [4] is Plasmodium falciparum. The experiment in a line: Antimalarial activity against Plasmodium falciparum D6 assessed as inhibition of [3H] incorporation after 48 hrs by scintillation counter.
Experiment [5] concerns Plasmodium falciparum. Put plainly: Antimalarial activity against Plasmodium falciparum FCM29 assessed as inhibition of [3H] incorporation after 48 hrs by scintillation counter.
The test system of experiment [6] is Plasmodium falciparum. Put plainly: Antimalarial activity against Plasmodium falciparum PA assessed as inhibition of [3H] incorporation after 48 hrs by scintillation counter.
The subject of experiment [7] is Plasmodium falciparum. Put plainly: Antimalarial activity against Plasmodium falciparum HB3 assessed as inhibition of [3H] incorporation after 48 hrs by scintillation counter.
In experiment [8] the test system is Plasmodium falciparum. Put plainly: Antimalarial activity against Plasmodium falciparum 106/1 assessed as inhibition of [3H] incorporation after 48 hrs by scintillation counter.
Experiment [9] concerns Plasmodium falciparum. The experiment in a line: Antimalarial activity against Plasmodium falciparum IMT Guy assessed as inhibition of [3H] incorporation after 48 hrs by scintillation counter.
In experiment [10] the test system is Plasmodium falciparum. The experiment in a line: Antimalarial activity against Plasmodium falciparum IMT 10336 assessed as inhibition of [3H] incorporation after 48 hrs by scintillation counter.
In experiment [11] the test system is Plasmodium falciparum. Put plainly: Antimalarial activity against Plasmodium falciparum IMT 16332 assessed as inhibition of [3H] incorporation after 48 hrs by scintillation counter.
Experiment [12] deals with Plasmodium falciparum. The experiment in a line: Antimalarial activity against Plasmodium falciparum IMT K14 assessed as inhibition of [3H] incorporation after 48 hrs by scintillation counter.
For experiment [13], the system named is Plasmodium falciparum. Put plainly: Antimalarial activity against Plasmodium falciparum D6 harboring Ppcrt I371R mutant gene assessed as incorporation of [3]H hypoxanthine after 48 hrs by scintillation counter. Particulars: D6, 48 h.
The subject of experiment [14] is Plasmodium falciparum. The experiment in a line: Antimalarial activity against Plasmodium falciparum HB3 harboring Ppcrt I371R mutant gene and Pfmdr1 Y184F mutant gene assessed as incorporation of [3]H hypoxanthine after 48 hrs by scintillation counter. The note with it: HB3, 48 h.
For experiment [15], the system named is Plasmodium falciparum. Put plainly: Antimalarial activity against Plasmodium falciparum IMT 31 harboring Ppcrt I371R mutant gene assessed as incorporation of [3]H hypoxanthine after 48 hrs by scintillation counter. Particulars: IMT 31, 48 h.
Experiment [16] has as its system Plasmodium falciparum. The experiment in a line: Antimalarial activity against Plasmodium falciparum IMT 9881 assessed as inhibition of [3H] incorporation after 48 hrs by scintillation counter.
Experiment [17] deals with Plasmodium falciparum. The experiment in a line: Antimalarial activity against Plasmodium falciparum IMT Vol assessed as inhibition of [3H] incorporation after 48 hrs by scintillation counter.

What is called IC50 is the concentration at which inhibition is half-maximal.

For `Clc1ccc2c(N3CCN(CCCN4CCN(c5ccnc6cc(Cl)ccc56)CC4)CC3)ccnc2c1` [PIPERAQUINE], the IC50 with Plasmodium falciparum [1] is 0.081 µM; in the experiment with Plasmodium falciparum [2], 0.084 µM; with Plasmodium falciparum [3], 0.064 µM; in the experiment on Plasmodium falciparum [4] it was 0.058 µM; in the experiment with Plasmodium falciparum [5] it was 0.098 µM; in the experiment with Plasmodium falciparum [6] it was 0.08 µM. For the same compound, the IC50 turned out to be 0.055 µM in the experiment with Plasmodium falciparum [7]; 0.069 µM in the experiment with Plasmodium falciparum [8]; 0.063 µM in the experiment with Plasmodium falciparum [9]; 0.074 µM in the experiment with Plasmodium falciparum [10]; 0.048 µM with Plasmodium falciparum [11]; 0.061 µM in the experiment with Plasmodium falciparum [12]. Also, the IC50 with Plasmodium falciparum [13] came to 0.058 µM; in the experiment with Plasmodium falciparum [14] it was 0.055 µM; with Plasmodium falciparum [15], 0.048 µM.

On to `C[C@H]1[C@@H](O)O[C@@H]2O[C@@]3(C)CC[C@H]4[C@H](C)CC[C@@H]1[C@@]24OO3` [ARTENIMOL], for which the concentration for half-maximal inhibition (IC50) in the experiment with Plasmodium falciparum [1] was determined as 0.0033 µM; in the experiment on Plasmodium falciparum [2] it was 0.0012 µM; in the experiment with Plasmodium falciparum [3] it was 0.0034 µM; in the experiment with Plasmodium falciparum [4], 0.0014 µM; in the experiment with Plasmodium falciparum [5], 0.0013 µM; with Plasmodium falciparum [6], 0.0014 µM. Also, the half-inhibitory concentration (IC50) was found to be 0.0035 µM in the experiment with Plasmodium falciparum [16]; 0.0016 µM in the experiment with Plasmodium falciparum [10]; 0.0011 µM with Plasmodium falciparum [11]; 0.0021 µM with Plasmodium falciparum [12]; 0.0012 µM with Plasmodium falciparum [17]; 0.0014 µM with Plasmodium falciparum [13]. Moreover, the half-inhibitory concentration (IC50) turned out to be 0.003 µM in the experiment with Plasmodium falciparum [14] and 0.0017 µM with Plasmodium falciparum [15].

The values above are taken from ChEMBL document CHEMBL1649312, “Absence of association between piperaquine in vitro responses and polymorphisms in the pfcrt, pfmdr1, pfmrp, and pfnhe genes in Plasmodium falciparum” (Antimicrob Agents Chemother, 2010).
